Test results as given in patent US20130274705A1, “FEEDBACK-BASED DIURETIC OR NATRIURETIC MOLECULE ADMINISTRATION” (MEDTRONIC, INC., priority 2012, published 2013).

Key:
[1] = system: anesthetized, mechanically ventilated male dog; assay: NICOM study: cardiac data in an anesthetized, mechanically ventilated dog; type: in vivo; conditions: measured by NICOM monitor
Text: A noninvasive cardiac output monitoring (NICOM) monitor was utilized to measure cardiac data from an anesthetized, mechanically ventilated, 54 lb, 42 inch (nose to base of tail) male dog. FIGS. 20-24 depict the cardiac data measured by the NICOM monitor.
The gap in data at 11:20 indicates electrocautery interference when the chest of the dog was opened. FIG. 21 depicts the data in response to sequential fluid boluses. An approximate 20% increase in CO was detected reflecting changes in both SV and HR. […] FIG. 23 depicts the cardiodepressant effect of the ultra-short beta-blocker esmolol given after dobutamine and recalibration. […] FIG. 24 depicts the response to increasing blood pressure with phenylephrine followed by decreasing blood pressure with sodium nitroprusside (SNP). Prior to this intervention, the dog chest had been opened and commercially available flow monitors had been implanted on the pulmonary artery (PA). Baseline PA flow data, which was measured by the implantable monitors, was 2.7 L/min. The PA flow data measured by the NICOM monitor was 2.812 L/min.

[2] = system: canine model high-rate paced (HRP) to simulate HF; assay: Pharmacodynamic study of VD by continuous subcutaneous infusion in high-rate paced canine heart failure model; type: in vivo; conditions: SQ infusion 100 ng/kg·min
Experimental: FIGS. 16 and 17 show the mean right atrial pressure and the mean pulmonary capillary wedge pressure, respectively, for control and experimental groups of a canine model high-rate paced (HRP). A pharmaceutical formulation of VD was prepared in a Tris buffer. 16.0 g glycerol, 6.05 g tris-(hydroxymethyl)-aminomethane (“Tris”), 2.50 g meta cresol were mixed in a 1.00 L volumetric flask. Approximately 900 mL nanopure water was added to the volumetric flask and the mixture was magnetically stirred to reach complete dissolution. 4 normal hydrochloric acid was used to adjust pH to 7.3 at 25° C. Then, the flask was filled to 1 L mark with nanopure water. The pH was rechecked and verified to be 7.3 at 25° C. The pH 7.3 Tris buffer was stored at 2-8° C. until use.
Lyophilized VD peptide (Bachem) was weighted into a glass vial and dissolved into a known volume of the Tris buffer to a concentration between 1 mg/mL and 10 mg/mL. The VD peptide was dissolved by gentle mixing and the solution was allowed to rest for between 20 and 30 minutes. The pH of the solution was checked and adjusted to 7.3 with 0.1 N sodium hydroxide. The solution was filtered through a 0.22 micron sterile filter into a sterile glass vial and stored at 2 to 8° C. until use.
The pharmacodynamic effects of VD delivered by subcutaneous infusion were investigated in a canine model high-rate paced (HRP) to a heart rate of 240 bpm (ventricular pacing) over a period of 10 days to simulate HF. The canines were divided into a control group and an experimental group. The control group received a continuous subcutaneous infusion of the Tris buffer without VD over the course of the 10 day period. The experimental group received continuous subcutaneous infusion of VD dissolved in Tris buffer at a dosing rate of 100 ng/kg·min based upon the body weight of individual canines.
Seven days prior to the beginning of HRP (Day −7), all dogs were instrumented for ventricular pacing with an IPG (implantable pulse generator) including an RA (right atrium) and RV (right ventricle) lead, and a DSI ([…]) device in the femoral artery for arterial blood pressure monitoring. Glomerular filtration rate (GFR) was measured by iohexol clearance on the day before the beginning of HRP (Day −1). On Day 0, high-rate pacing was initiated at a rate of 240 BPM (beats per minute) and maintained continuously over the course of a 10 day period (Days 0-10). After HRP was started on Day 0, urine, blood, and hemodynamic data was collected from conscious animals to serve as a baseline. […]

[3] = system: Dahl/SS rats; assay: Pharmacodynamic study of VD in Dahl/SS rats on 4% salt diet (blood pressure); type: in vivo, rat; conditions: for blood pressure compared with 4% vehicle control group at week 3: week 3, p-value<0.05
Experimental: The pharmacodynamic effects of VD were investigated in a rat model. Forty male Dahl/SS rats were shipped to the animal facilities at PhysioGenix, Inc. (Milwaukee, Wis.). The rats were maintained on a low-salt diet and allowed to acclimate. After acclimation, animals had baseline parameters collected while on the low-salt diet. Baseline tail-cuff blood pressures and echocardiograms were measured. Baseline urine was collected for analysis of protein and albumin. Animals were then randomly assigned to one of 4 groups (10 animals per group):
1. Vehicle Control; low-salt diet, n=10 2. Vehicle Control; 4% salt diet, n=10 3. Vessel dilator, 100 ng/kg/min, 4% salt diet, n=10 4. Vessel dilator, 300 ng/kg/min, 4% salt diet, n=10
Lyophilized VD peptide (Bachem) was reconstituted in a Tris buffer having the same composition as the Tris buffer used in Example 7. The vehicle control groups were infused with a citrate-mannitol-saline buffer (0.66 mg/mL citric acid, 6.43 mg/mL sodium citrate, 40 mg/mL mannitol, 9 mg/mL NaCl). The animals were on a Teklad 7034 (low-salt) diet or Dyets AIN-76A 4% salt diet, as indicated, throughout a 6 week course of the study and had free access to water.
Alzet® minipumps (Durect, Corp.) were surgically implanted on Days 1, 15, and 29 of the study to maintain continuous vehicle or drug dispensing at the desired dose for a total period of 6 weeks. Urine was collected at baseline, 2, 4 and 6 weeks after the initiation of the treatment to assess proteinuria and albuminuria. After six weeks of treatment, the animals were then euthanized.

CNC[C@H](O)c1cccc(O)c1 [Phenylephrine, phenylephrine]
effect on cardiac output (CO) [1]: reduced CO
effect on heart rate (HR) [1]: reflex slowing of the HR

CC(CCc1ccc(O)cc1)NCCc1ccc(O)c(O)c1 (centres unmarked) [dobutamine]
effect on cardiac output (CO) [1]: marked increase in CO

COC(=O)CCc1ccc(OCC(O)CNC(C)C)cc1 (centres unmarked) [esmolol]
effect on cardiac output (CO) [1]: marked decline in CO

vessel dilator (EVVPPQVLSEPNEEAGAALSPLPEVPPWTGEVSPAQR; Vessel dilator; UniProt P01160 56-92, looked up) [VD, Natriuretic peptide of the ANP hormones; lyophilized VD peptide (Bachem) dissolved in Tris buffer]
increase in right atrial pressure compared with control group ([2]; Day 10, p-value<0.05): significantly less than for the control group
change in mean right atrial pressure from Day 0 to Day 10 ([2]; HRP 240 bpm, 10 days): increased slightly
difference in pulmonary capillary wedge pressure between control and experimental group on Day 10 ([2]; alpha 0.05, two-way repeated measures ANOVA): does not appear to be statistically significant
extent of increase in pulmonary capillary wedge pressure from Day 0 to Day 10 ([2]; versus control group): smaller than that observed in the control group
blood pressure compared with vehicle control group on 4% salt diet ([3]; high-dose VD 300 ng/kg/min SQ infusion): attenuated blood pressure
blood pressure compared with 4% vehicle control group at week 3 ([3]; high-dose VD 300 ng/kg/min): statistically significant decrease in blood pressure
decrease in blood pressure compared with 4% vehicle control group at week 5 ([3]; high-dose VD 300 ng/kg/min): not as statistically significant
blood pressure compared with vehicle control group on 4% salt diet ([3]; low-dose VD 100 ng/kg/min SQ infusion): attenuated blood pressure
blood pressure compared with 4% vehicle control group at week 3 ([3]; low-dose VD 100 ng/kg/min): statistically significant decrease in blood pressure
decrease in blood pressure compared with 4% vehicle control group at week 5 ([3]; low-dose VD 100 ng/kg/min): not as statistically significant
